Test results taken from publication PMC11048033, “Dual Anti-Inflammatory and Anticancer Activity of Novel 1,5-Diaryl Pyrazole Derivatives: Molecular Modeling, Synthesis, In Vitro Activity, and Dynamics Study” (Biomedicines, 2024).

Columns and labels:
[1] = molecular target: BSA (bovine albumin serum) (Bos taurus, UniProt P02769); assay: Protein (albumin) denaturation assay; details: maximum inhibition; compounds tested at 50-200 µg/mL, diclofenac 100 µg/mL
Description: Mizushima and Kobayashi’s technique was employed for the determination of in vitro anti-inflammatory activity by the protein denaturation method for the synthesized compounds. […] Then, a mixture of 500µL of 1% aqueous solution of BSA (bovine albumin serum) and 1.4 mL of phosphate buffer saline (PBS, pH 7.4) was added to 100 µL of varying concentrations of the synthesized compounds 50, 100, and 200 µg/mL. […] The mixtures are then incubated for 15 min at 37 °C and then heated for 10 min at 60 °C. The absorbance was measured at 660nm (SHIMADZU, UV-1800 Spectrophotometer) upon cooling. […] The entire experiment was done in triplicate, and the average was calculated. % inhibition of protein denaturation was calculated by: % inhibition=Absorbance of Control−Absorbance of Sample/Absorbance of Control×100
The anti-inflammatory capacity of the target compound was evaluated using the protein denaturation assay.

[2] = test system: HEPG2 (human liver) cell line; assay: MTT anticancer assay, HepG2; type: cell-based
Description: (§1) The in vitro anticancer activity is determined by counting the viable cells that are stained with a vital dye. The MTT technique is an accurate measure of the activity of live cells using mitochondrial dehydrogenases. The target tumor cells A549 (human lung adenocarcinoma) and HEPG2 (human liver) cell lines are procured from the “National Centre for Cell Science” (NCCS, Pune). The sources of reagents like Trypsin, DMEM, Pen strip, and FBS are procured from Himedia. […] The culture medium was prepared, and the MTT assay was performed as per the general procedure described by Mosmann T. et al., [30] and the % viability of the cells was determined.
(§2) The target compounds tested for in vitro COX-2 were further checked for in vitro anti-cancer activity against A549 (lung cancer) and HepG2 (liver cancer) cell lines using MTT growth inhibition assay. The compounds were tested for cytotoxicity against both the cell lines at concentrations of 6.25, 12.5, 25, 50, and 100 µg/mL. […] Using the graph where % cell viability is plotted versus concentration, the IC50 values are determined with the help of the dose–response regression equation.

[3] = test system: A549 (human lung adenocarcinoma) cell line; assay: MTT anticancer assay, A549; type: cell-based
Description: as §1, §2

Human COX-2 = molecular target: T1, Human COX-2 (Homo sapiens, UniProt P35354); assay: In vitro COX-2 enzymatic assay (Cayman COX (human) Inhibitor Screening Assay Kit); type: biochemical; details: human COX-2
T1 construct: purchased Cayman Chemicals 701230
T1 sequence (P35354 18-604): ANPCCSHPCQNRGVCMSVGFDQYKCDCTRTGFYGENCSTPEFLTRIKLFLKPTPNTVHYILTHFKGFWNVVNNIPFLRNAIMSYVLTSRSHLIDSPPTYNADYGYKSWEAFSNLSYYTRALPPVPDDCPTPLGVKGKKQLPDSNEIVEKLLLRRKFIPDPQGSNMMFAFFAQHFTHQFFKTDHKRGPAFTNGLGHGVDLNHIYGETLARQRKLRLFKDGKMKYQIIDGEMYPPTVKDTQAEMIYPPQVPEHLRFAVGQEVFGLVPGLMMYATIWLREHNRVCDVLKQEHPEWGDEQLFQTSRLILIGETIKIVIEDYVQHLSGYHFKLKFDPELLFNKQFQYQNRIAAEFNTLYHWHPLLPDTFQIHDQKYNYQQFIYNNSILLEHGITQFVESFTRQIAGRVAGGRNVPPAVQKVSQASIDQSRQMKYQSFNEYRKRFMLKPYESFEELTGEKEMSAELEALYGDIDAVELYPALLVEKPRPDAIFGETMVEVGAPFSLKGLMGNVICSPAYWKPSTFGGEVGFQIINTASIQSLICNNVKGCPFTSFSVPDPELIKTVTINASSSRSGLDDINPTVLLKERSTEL
Description: The ability of the compounds to inhibit COX -2 (IC50 values, µM) was determined by using a “COX (human) Inhibitor Screening Assay Kit” procured from Cayman Chemicals (catalog number 701230). With a slight modification in the method as defined in the reference, the COX-2 inhibition assay was performed. Using the percent conversion of arachidonic acid (AA) to PGH2, the enzyme activity was calculated. By enzyme immunoassay PGF2α, which is produced from PGH2 by reduction with stannous chloride, is calculated. The test compounds’ stock solutions are prepared by dissolving in a minimum amount of DMSO. Human COX-2 (10 µL) in the presence of 10 µL of heme was suspended in 0.1M Tris-HCl buffer (pH 8.0) which contains 2 mM phenol and 5 mM EDTA. This was added to various concentrations of test compounds and, on incubating the solutions at 37 °C for 5 min, 10 µL of AA solution were added. Later, the COX reaction was stopped by adding 1M HCl (50 µL) after 2 min. The intensity of the yellow color which is produced as the product of the enzymatic reaction is determined spectrophotometrically. The percent inhibition was calculated by comparing the compound treated to different control incubations. […] The determinations are done in triplicate and the IC50 (µM) was determined using the concentration–inhibition response curve.
During the initiation of the inflammatory process, the COX enzyme plays a vital role in the progression of inflammatory response. The inflammatory mediators that arise due to the action of COX lead to the chemoattraction of neutrophils, macrophages, eosinophils, etc. […] This was carried out with the help of a COX (human) inhibitor screening assay kit (Item no. 701230) from Cayman chemicals. […] A test substance concentration was considered to be inhibitive when it inhibited human COX-1 or COX-2 by 50%. The compound’s selectivity was measured by its selectivity index values, derived as IC50 (COX-1)/IC50 (COX-2).

Sequence of BSA (bovine albumin serum) (P02769 25-607): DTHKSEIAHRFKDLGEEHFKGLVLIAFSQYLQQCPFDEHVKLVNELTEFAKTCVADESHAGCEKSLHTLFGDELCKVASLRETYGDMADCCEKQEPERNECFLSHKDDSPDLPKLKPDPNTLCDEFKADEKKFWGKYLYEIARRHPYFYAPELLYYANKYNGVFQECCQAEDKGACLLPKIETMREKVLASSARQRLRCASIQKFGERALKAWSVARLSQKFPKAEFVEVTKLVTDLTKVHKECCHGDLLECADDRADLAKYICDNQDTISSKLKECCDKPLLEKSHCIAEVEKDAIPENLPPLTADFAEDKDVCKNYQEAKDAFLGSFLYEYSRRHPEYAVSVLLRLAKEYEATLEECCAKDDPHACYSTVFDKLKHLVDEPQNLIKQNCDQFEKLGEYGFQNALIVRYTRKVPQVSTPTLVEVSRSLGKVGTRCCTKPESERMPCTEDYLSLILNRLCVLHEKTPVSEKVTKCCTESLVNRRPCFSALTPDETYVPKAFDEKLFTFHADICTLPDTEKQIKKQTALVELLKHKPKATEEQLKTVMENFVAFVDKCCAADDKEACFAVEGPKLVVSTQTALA

COc1ccc(-c2cc(C(=O)NN=Cc3cccc(Oc4ccccc4)c3)nn2-c2ccc(S(N)(=O)=O)cc2)cc1 [Compound T1, 4-(5-(4-methoxyphenyl)-3-(2-(3-phenoxybenzylidene) hydrazine-1-carbonyl)-1H-pyrazol-1-yl) benzenesulfonamide]
% inhibition of albumin denaturation [1]: less than 50%

COc1ccc(-c2cc(C(=O)NN=Cc3ccc(Oc4ccccc4)cc3)nn2-c2ccc(S(N)(=O)=O)cc2)cc1 [Compound T2, 4-(5-(4-methoxyphenyl)-3-(2-(4-phenoxybenzylidene) hydrazine-1-carbonyl)-1H-pyrazol-1-yl) benzenesulfonamide]
% cell viability ([2]; HepG2, 6.25 µg/ml): 78.42%
% cell viability ([2]; HepG2, 12.5 µg/ml): 77.90%
% cell viability ([2]; HepG2, 25 µg/ml): 71.82%
% cell viability ([2]; HepG2, 50 µg/ml): 67.10%
% cell viability ([2]; HepG2, 100 µg/ml): 64.39%
IC50 against HepG2 ([2]; MTT, HepG2): > 100 µM
anti-cancer activity against A549 cell lines (in words) ([3]; A549): active
% cell viability ([3]; A549, 6.25 µg/ml): 95.63%
% cell viability ([3]; A549, 12.5 µg/ml): 81.83%
% cell viability ([3]; A549, 25 µg/ml): 54.02%
% cell viability ([3]; A549, 50 µg/ml): 33.98%
% cell viability ([3]; A549, 100 µg/ml): 18.25%
concentration at which compound was effective (from % inhibitory values) ([3]; A549 cell lines): 25 µg/mL
IC50 against A549 ([3]; MTT, A549): 31.49 µM
% inhibition of albumin denaturation [1]: 81.77%
IC50 (Human COX-2): 12 µM

NS(=O)(=O)c1ccc(-n2nc(C(=O)NN=Cc3cccc(Oc4ccccc4)c3)cc2-c2ccc(Br)cc2)cc1 [Compound T4, 4-(5-(4-bromophenyl)-3-(2-(3-phenoxybenzylidene) hydrazine-1-carbonyl)-1H-pyrazol-1-yl) benzenesulfonamide]
% inhibition of albumin denaturation [1]: less than 50%

Cc1cc(C=NNC(=O)c2cc(-c3ccc(Cl)cc3)n(-c3ccc(S(N)(=O)=O)cc3)n2)cc(C)c1OCc1ccccc1 [Compound T6, 4-(3-(2-(4-(benzyloxy)-3,5-dimethylbenzylidene) hydrazine-1-carbonyl)-5-(4-chlorophenyl)-1H-pyrazol-1-yl)benzenesulfonamide]
anti-cancer activity against HepG2 cell line (in words) ([2]; HepG2): active
viability at 6.25 µg/mL ([2]; Homo sapiens, HepG2, 6.25 µg/ml): 24.1%
viability at 12.5 µg/mL ([2]; Homo sapiens, HepG2, 12.5 µg/ml): 11%
viability at 25 µg/mL ([2]; Homo sapiens, HepG2, 25 µg/ml): 2.99%
viability at 50 µg/mL ([2]; Homo sapiens, HepG2, 50 µg/ml): 2.87%
viability at 100 µg/mL ([2]; Homo sapiens, HepG2, 100 µg/ml): 2.62%
IC50 ([2]; Homo sapiens, MTT, HepG2, read-out: IC50 against HepG2): < 6.25 µg/mL
viability at 6.25 µg/mL ([3]; Homo sapiens, A549, 6.25 µg/ml): 97.7%
viability at 12.5 µg/mL ([3]; Homo sapiens, A549, 12.5 µg/ml): 87%
viability at 25 µg/mL ([3]; Homo sapiens, A549, 25 µg/ml): 78.8%
viability at 50 µg/mL ([3]; Homo sapiens, A549, 50 µg/ml): 74.6%
viability at 100 µg/mL ([3]; Homo sapiens, A549, 100 µg/ml): 63.4%
IC50 ([3]; Homo sapiens, MTT, A549, read-out: IC50 against A549): > 100 µg/mL
% inhibition of albumin denaturation [1]: 61.05%
IC50 (Human COX-2): 2.54 µM

NS(=O)(=O)c1ccc(-n2nc(C(=O)NN=Cc3ccc(Oc4ccccc4)cc3)cc2-c2ccc(Br)cc2)cc1 [Compound T7, 4-(5-(4-bromophenyl)-3-(2-(4-phenoxybenzylidene) hydrazine-1-carbonyl)-1H-pyrazol-1-yl) benzenesulfonamide]
% inhibition of albumin denaturation [1]: less than 50%

NS(=O)(=O)c1ccc(-n2nc(C(=O)NN=Cc3ccc(Oc4ccccc4)cc3)cc2-c2ccc(Cl)cc2)cc1 [Compound T8, 4-(5-(4-chlorophenyl)-3-(2-(4-phenoxybenzylidene) hydrazine-1-carbonyl)-1H-pyrazol-1-yl) benzenesulfonamide]
% inhibition of albumin denaturation [1]: less than 50%

NS(=O)(=O)c1ccc(-n2nc(C(=O)NN=Cc3ccc(Cl)cc3O)cc2-c2ccc(Br)cc2)cc1 [Compound T9, 4-(5-(4-bromophenyl)-3-(2-(4-chloro-2-hydroxybenzylidene) hydrazine-1-carbonyl)-1H-pyrazol-1-yl) benzenesulfonamide]
% cell viability ([2]; HepG2, 6.25 µg/ml): 85.46%
% cell viability ([2]; HepG2, 12.5 µg/ml): 84.90%
% cell viability ([2]; HepG2, 25 µg/ml): 79.30%
% cell viability ([2]; HepG2, 50 µg/ml): 67.24%
% cell viability ([2]; HepG2, 100 µg/ml): 54.42%
IC50 against HepG2 ([2]; MTT, HepG2): > 100 µM
% cell viability ([3]; A549, 6.25 µg/ml): 91.72%
% cell viability ([3]; A549, 12.5 µg/ml): 84.82%
% cell viability ([3]; A549, 25 µg/ml): 76.64%
% cell viability ([3]; A549, 50 µg/ml): 66.94%
% cell viability ([3]; A549, 100 µg/ml): 54.57%
IC50 against A549 ([3]; MTT, A549): > 100 µM
% inhibition of albumin denaturation [1]: 67.77%
IC50 (Human COX-2): 3.5 µM

NS(=O)(=O)c1ccc(-n2nc(C(=O)NN=Cc3ccc(Cl)cc3O)cc2-c2ccccc2)cc1 [Compound T10, 4-(3-(2-(4-chloro-2-hydroxybenzylidene) hydrazine-1-carbonyl)-5-phenyl-1H pyrazol-1-yl) benzenesulfonamide]
% inhibition of albumin denaturation [1]: less than 50%
